Patent US11672762B2, “Onapristone extended-release compositions and methods” (Context Biopharma Inc., priority 2014, dated 2023)

Key:
[1] = original immediate release (IR) formulation; cited from earlier work
[2] = system: gonadotrophin (LH and FSH) secretion; details: immediate release doses of 1 and 10 mg; cited from earlier work
[3] = human, in vivo
From the text: PK results for onapristone are available for 52 patients from the a first study (ARN-AR18-CT-101) (Table 1). Variability for onapristone PK is moderate and greater for the IR versus the ER formulation. Onapristone Cmax and AUC values for the ER form are proportional to administered dose (FIGS. 1 and 2). Based on observed mean AUC values, oral bioavailability for the ER versus the IR formulation is approximately 50% (FIG. 24). A later Tmax value for the ER form results in somewhat lower dose-corrected Cmax values for the ER form compared to the IR form. Steady state is attained before day 8 with a mean t % of 7.5 hrs.
Table 1 compares descriptive statistics for the primary onapristone pharmacokinetic exposure parameters following single oral doses from 10 to 50 mg of extended-release onapristone compared to that from 100 mg immediate-release onapristone (Study ARN-AR18-CT-101). […]
Blood samples were collected at 0, 1, 2, 3, 4, 6, 8, 12 (before next BID dose), and 24 (before next dose—for 100 mg IR only) hours post-ONA, as well as hour 0 on days 8, 29 and 57 (just before drug intake). Plasma concentrations of ONA, mono-demethylated onapristone (M1) and other metabolites in plasma and urine were analyzed with a validated ultra-performance liquid chromatography with tandem mass spectrometry detection (UPLC-MS/MS) assay. […]

CN(C)c1ccc([C@H]2C[C@]3(C)[C@@H](CC[C@]3(O)CCCO)[C@@H]3CCC4=CC(=O)CCC4=C32)cc1 [onapristone, (8S,11R,13R,14S,17S)-11-[4-(dimethylamino)phenyl]-17-hydroxy-17-(3-hydroxypropyl)-13-methyl-1,2,6,7,8,11,12,14,15,16-decahydrocyclopenta[a]phenanthren-3-one]
tolerability [1]: well-tolerated with the exception of abnormalities in liver function tests
effect on gonadotrophin (LH, FSH) secretion [2]: dose-dependent effect of onapristone on suppression of gonadotrophin
Steady state attained [3]: < 8 days
mean t % [3]: 7.5 h
